# From publication PMC9652379, “Safety evaluations of a synthetic antimicrobial peptide administered intravenously in rats and dogs” (Scientific Reports, 2022)
# Positions of bridges follow the written chain, without caps; N, C: chain ends. Non-standard residues stand in square brackets, D forms with d. Residues, ends and D or L forms follow the SMILES beside them. Chains are numbered I, II in the order given. βAla = NCCC(=O)O
# Assays:
# [1] = tested on: beagle dogs; experiment: Four-week toxicity study in dogs: necroscopy, organ weights, microscopic findings; type: in vivo, dog; details: for Kidney: degeneration/regeneration, tubules, minimal (incidence): 4-week dosing; for Kidney: regeneration, tubules, minimal (incidence): 4-week recovery period
# Description: These higher weights were correlated microscopically with minimal tubule degeneration/regeneration and minimal interstitial cell infiltrates. There were no other SET-M33-related organ weight changes (Table 6). There were no organ weight changes at recovery sacrifice, or macroscopic findings at terminal and recovery necroscopy. […] The kidney findings included minimal tubule degeneration/regeneration at 1.5 mg/kg/day and 4 mg/kg/day in males, and at 4.0 mg/kg/day in females, and minimal interstitial cell infiltrate in both sexes at a dose of 4.0 mg/kg/day. Degeneration featured vacuolation, cell sloughing and/or tinctorial change, and regeneration was characterized by increased basophilia, nuclear crowding and/or increased mitoses of cortical tubule epithelial cells. Regenerative changes were typically more pronounced than degenerative changes. SET-M33-related microscopic findings in kidney were correlated with higher kidney weights (absolute and relative to body and brain weight) and elevated BUN and creatinine in both sexes at 4.0 mg/kg/day. […] After the 4-week recovery period, kidney interstitial infiltrates cleared completely and tubule degeneration/regeneration resolved almost completely. At the infusion sites, there was complete recovery from vascular/perivascular inflammation and tunica intima hypertrophy/hyperplasia with partial recovery from vascular thrombi and hypertrophy/hyperplasia of the tunica media. Minimal regeneration of cortical tubule epithelial cells, observed in the kidneys of 1 female at a dose of 4.0 mg/kg/day, was considered to be due to a repair process, and a slight thrombus observed at the infusion site (saphenous vein) of another female was also in line with ongoing repair.
# Complete macroscopic examination was performed on all animals, including examination of the external surface and all orifices; the external surfaces of the brain and spinal cord; the organs and tissues of the cranial, thoracic, abdominal and pelvic cavities and neck; and the rest of the carcass for macroscopic morphological abnormalities. Necropsy was performed on up to 3 animals/sex/group after treatment for 4 weeks and on 2 animals/sex/group after a 4-week treatment-free recovery period. Organs and tissues were weighed, preserved and examined microscopically. Prior to weighing, organs were carefully dissected and properly trimmed to remove adipose and other contiguous tissue in a uniform manner. Organs were weighed as soon as possible after dissection in order to avoid drying. Paired organs were weighed together. Eyes, optic nerve and testes were initially placed in Modified Davidson’s solution and then kept in 10% neutral buffered formalin (NBF). Lungs and urinary bladder were infused with 10% NBF prior to immersion in a larger volume of the same fixative. All other tissues were preserved in 10% NBF.
# [2] = tested on: male rats; experiment: Neurological toxicity in rats (Irwin test, body temperature, locomotor activity, body weight); type: in vivo
# Description: The purpose of this study was to evaluate the neurological side-effects of SET-M33 following a single intravenous injection of 5, 9 and 15 mg/kg and vehicle (6 animals/group). The study was based on subjective observation of central nervous system effects on general behaviour (Irwin test), combined with objective evaluation of body temperature and locomotor activity in male rats[32],[33]. Effects on body weight were also assessed. Again the dose levels were selected on the basis of the DRF study reported above.
# Evaluation of SET-M33 neurological toxicity was based on the method described by Irwin[32],[33]. On the day prior to dosing, detailed subjective observation of all animals was made to assess the neurobehavioral and physiological state of untreated rats. After subjective observation, rectal temperature was measured and spontaneous locomotor activity was assessed. On the day of dosing, the animals were treated and then returned to their home cages. […] During these observations, the following parameters were systematically evaluated for each animal using a standard procedure: lethality, restlessness, apathy, writhing, fighting, stereotyped behaviour, tremor, twitches, convulsions, exophthalmos, abnormal respiration, alertness, startle response, loss of righting reflex, abnormal body carriage, abnormal gait, Straub tail, piloerection, pupil diameter, light-pupil response, touch response, fearfulness, pinna reflex, corneal reflex, catalepsy, passivity, aggressiveness, body tone, grip strength, cutaneous blood flow, cyanosis, ptosis, lacrimation, salivation, pain response, motility impairment, grooming, diarrhoea, vocalization, increased urination. Normal attributes of animals (e.g. alertness, body tone etc.) were subjectively scored as 4; enhancement or depression of these attributes by SET-M33 was scored with higher or lower integers, respectively. Attributes normally absent in animals (e.g. abnormal gait, abnormal respiration, tremors etc.) were subjectively scored from 0 (normal) to 8. […] Finally, spontaneous locomotor activity was analysed. […]
# [3] = tested on: beagle dogs; experiment: Four-week toxicity study with 4-week recovery in dogs: survival, ECG, NOAEL; type: in vivo, dog
# Description: Beagle dogs (5/sex/group) were dosed by intravenous infusion once daily for 1 h with 0 (0.9% sodium chloride for injection), 0.5, 1.5 or 4.0 mg/kg/day SET-M33 for four consecutive weeks. The doses were selected in the dog DRF study (above). The dose of 4 mg/kg/day was selected as the highest dose without macroscopic side effects in the DRF study, and was used to evaluate renal toxicity and its reversibility. The dose of 0.5 mg/kg/day was selected as the lowest dose, about one order of magnitude less than the highest dose. The dose of 1.5 mg/kg/day was selected as an approximately median mid-dose. On completion of 4 weeks of infusion, three animals/sex/group were euthanized and necropsied and the remaining two animals/sex/group were held for a 4-week drug free recovery period after which they were euthanized and necropsied. Blood samples were obtained from all animals on days 1 and 28 for toxicokinetic analysis.
# Animals were observed daily for mortality and signs of severe toxic or pharmacological effects. […] Blood obtained via jugular venepuncture from anaesthetized dogs was used to analyse blood, coagulation and clinical chemistry parameters for 5 animals/sex/group pre-test and at termination of dosing and from 2 animals/sex/group at the end of recovery.
compound,measurement,setting,value
"CC[C@H](C)[C@H](NC(=O)[C@H](CCCCN)NC(=O)[C@@H](N)CCCCN)C(=O)N[C@@H](CCCNC(=N)N)C(=O)N[C@H](C(=O)N[C@@H](CCCNC(=N)N)C(=O)N[C@@H](CC(C)C)C(=O)N[C@@H](CO)C(=O)N[C@@H](C)C(=O)NCCCC[C@H](NC(=O)[C@H](C)NC(=O)[C@H](CO)NC(=O)[C@H](CC(C)C)NC(=O)[C@H](CCCNC(=N)N)NC(=O)[C@@H](NC(=O)[C@H](CCCNC(=N)N)NC(=O)[C@@H](NC(=O)[C@H](CCCCN)NC(=O)[C@@H](N)CCCCN)[C@@H](C)CC)C(C)C)C(=O)NCCCC[C@H](NC(=O)[C@H](CCCCNC(=O)[C@H](C)NC(=O)[C@H](CO)NC(=O)[C@H](CC(C)C)NC(=O)[C@H](CCCNC(=N)N)NC(=O)[C@@H](NC(=O)[C@H](CCCNC(=N)N)NC(=O)[C@@H](NC(=O)[C@H](CCCCN)NC(=O)[C@@H](N)CCCCN)[C@@H](C)CC)C(C)C)NC(=O)[C@H](C)NC(=O)[C@H](CO)NC(=O)[C@H](CC(C)C)NC(=O)[C@H](CCCNC(=N)N)NC(=O)[C@@H](NC(=O)[C@H](CCCNC(=N)N)NC(=O)[C@@H](NC(=O)[C@H](CCCCN)NC(=O)[C@@H](N)CCCCN)[C@@H](C)CC)C(C)C)C(=O)NCCC(=O)O)C(C)C [SET-M33] (I: H-KKIRVRLSAKK[βAla]-OH / II: H-KKIRVRLSAK / III: H-KKIRVRLSA / IV: H-KKIRVRLSA; amide I:10-IV:C, I:11-II:C, II:10-III:C (inferred); N-terminus and C-terminus assumed)","Infusion site (combined incidence, four sites): haemorrhage, vascular/perivascular, minimal","[1]; dog, in vivo, 0.5 mg/kg/day",1
same,"Infusion site (combined incidence, four sites): haemorrhage, vascular/perivascular, moderate","[1]; dog, in vivo, 0.5 mg/kg/day",0
same,"Infusion site (combined incidence, four sites): haemorrhage, vascular/perivascular, slight","[1]; dog, in vivo, 0.5 mg/kg/day",1
same,"Infusion site (combined incidence, four sites): haemorrhage, vascular/perivascular, total","[1]; dog, in vivo, 0.5 mg/kg/day",2
same,"Infusion site (combined incidence, four sites): hypertrophy/hyperplasia, tunica intima, minimal","[1]; dog, in vivo, 0.5 mg/kg/day",0
same,"Infusion site (combined incidence, four sites): hypertrophy/hyperplasia, tunica media, minimal","[1]; dog, in vivo, 0.5 mg/kg/day",0
same,"Infusion site (combined incidence, four sites): inflammation, vascular/perivascular, moderate","[1]; dog, in vivo, 0.5 mg/kg/day",0
same,"Infusion site (combined incidence, four sites): thrombus, blood vessels, high","[1]; dog, in vivo, 0.5 mg/kg/day",0
same,"Infusion site (combined incidence, four sites): thrombus, blood vessels, moderate","[1]; dog, in vivo, 0.5 mg/kg/day",0
same,"Kidney: infiltrate, interstitium, minimal (incidence)","[1]; dog, in vivo, 0.5 mg/kg/day",0
same,"Infusion site (combined incidence, four sites): haemorrhage, vascular/perivascular, slight","[1]; dog, in vivo, 1.5 mg/kg/day",0
same,"Infusion site (combined incidence, four sites): hypertrophy/hyperplasia, tunica intima, minimal","[1]; dog, in vivo, 1.5 mg/kg/day",0
same,"Infusion site (combined incidence, four sites): hypertrophy/hyperplasia, tunica media, minimal","[1]; dog, in vivo, 1.5 mg/kg/day",0
same,"Infusion site (combined incidence, four sites): inflammation, vascular/perivascular, moderate","[1]; dog, in vivo, 1.5 mg/kg/day",0
same,"Infusion site (combined incidence, four sites): thrombus, blood vessels, high","[1]; dog, in vivo, 1.5 mg/kg/day",0
same,"Infusion site (combined incidence, four sites): thrombus, blood vessels, minimal","[1]; dog, in vivo, 1.5 mg/kg/day",0
same,"Infusion site (combined incidence, four sites): thrombus, blood vessels, slight","[1]; dog, in vivo, 1.5 mg/kg/day",0
same,"Infusion site (combined incidence, four sites): haemorrhage, vascular/perivascular, moderate","[1]; dog, in vivo, 4 mg/kg/day",0
same,"Infusion site (combined incidence, four sites): hypertrophy/hyperplasia, tunica intima, minimal","[1]; dog, in vivo, 4 mg/kg/day",0
same,"Infusion site (combined incidence, four sites): hypertrophy/hyperplasia, tunica intima, slight","[1]; dog, in vivo, 4 mg/kg/day",0
same,"Infusion site (combined incidence, four sites): hypertrophy/hyperplasia, tunica intima, total","[1]; dog, in vivo, 4 mg/kg/day",0
same,"Infusion site (combined incidence, four sites): thrombus, blood vessels, minimal","[1]; dog, in vivo, 4 mg/kg/day",0
same,"Infusion site (combined incidence, four sites): thrombus, blood vessels, moderate","[1]; dog, in vivo, 4 mg/kg/day",5
same,"Kidney: degeneration/regeneration, tubules, minimal (incidence)","[1]; female dogs, 0.5 mg/kg/day",0
same,"Kidney: regeneration, tubules, minimal (incidence)","[1]; female dogs, 0.5 mg/kg/day",0
same,"Kidney: degeneration/regeneration, tubules, minimal (incidence)","[1]; female dogs, 1.5 mg/kg/day",0
same,"Kidney: regeneration, tubules, minimal (incidence)","[1]; female dogs, 1.5 mg/kg/day",0
same,"Kidney: degeneration/regeneration, tubules, minimal (incidence)","[1]; female dogs, 4.0 mg/kg/day",2
same,"Kidney: regeneration, tubules, minimal (incidence)","[1]; female dogs, 4.0 mg/kg/day",1
same,"Kidney: degeneration/regeneration, tubules, minimal (incidence)","[1]; male dogs, 0.5 mg/kg/day",2
same,"Kidney: regeneration, tubules, minimal (incidence)","[1]; male dogs, 0.5 mg/kg/day",0
same,"Kidney: degeneration/regeneration, tubules, minimal (incidence)","[1]; male dogs, 1.5 mg/kg/day",3
same,"Kidney: regeneration, tubules, minimal (incidence)","[1]; male dogs, 1.5 mg/kg/day",0
same,"Kidney: degeneration/regeneration, tubules, minimal (incidence)","[1]; male dogs, 4.0 mg/kg/day",0
same,"Kidney: regeneration, tubules, minimal (incidence)","[1]; male dogs, 4.0 mg/kg/day",0
same,adverse clinical signs (Irwin test),"[2]; male rats, 5, 9 and 15 mg/kg single iv, 5, 30, 90, 240 min and 24 h post-dose",did not cause any adverse clinical signs
same,delayed toxicity and mortality,"[2]; male rats, 5, 9 and 15 mg/kg single iv, up to day 7",No delayed effects of toxicity and no mortality
same,group mean body temperature lower than vehicle-treated control group,"[2]; male rats, 9 and 15 mg/kg single iv, 5 min post-dose",0.4–0.6 °C
same,"effect on heart function, ECG parameters (heart rate, PR, QRS, QT and QTc intervals)","[3]; beagle dogs, daily iv infusion at ≥ 0.5 mg/kg/day, males and females",did not produce any observable effect on heart function
same,survival,"[3]; dogs, 0.5, 1.5 or 4.0 mg/kg/day 1-h iv infusion, 4 weeks + 4-week recovery",All animals survived until their scheduled termination
